According to publication PMC7692329, “Inhibitory Effect of AB-PINACA, Indazole Carboxamide Synthetic Cannabinoid, on Human Major Drug-Metabolizing Enzymes and Transporters” (Pharmaceutics, 2020):
Entries after “also recorded” stand apart in the source; their conditions may differ. Like-named read-outs stand apart in the source and are kept apart here.

Assays:
UGT1A6 = UGT1A6 (Homo sapiens, UniProt P19224); experiment: UGT1A6 N-acetylserotonin glucuronidation inhibition in ultrapooled human liver microsomes
OAT1 = molecular target: T1, OAT1 (Homo sapiens, UniProt Q4U2R8); experiment: OAT1-mediated para-aminohippuric acid uptake in HEK293-OAT1 cells; assay type: in vitro ADME
T1 construct: host or cells: HEK293

OAT3 = molecular target: T2, OAT3 (Homo sapiens, UniProt Q8TCC7); experiment: OAT3-mediated estrone-3-sulfate uptake in HEK293-OAT3 cells; assay type: in vitro ADME
T2 construct: host or cells: HEK293
T2 sequence (Q8TCC7 1-542): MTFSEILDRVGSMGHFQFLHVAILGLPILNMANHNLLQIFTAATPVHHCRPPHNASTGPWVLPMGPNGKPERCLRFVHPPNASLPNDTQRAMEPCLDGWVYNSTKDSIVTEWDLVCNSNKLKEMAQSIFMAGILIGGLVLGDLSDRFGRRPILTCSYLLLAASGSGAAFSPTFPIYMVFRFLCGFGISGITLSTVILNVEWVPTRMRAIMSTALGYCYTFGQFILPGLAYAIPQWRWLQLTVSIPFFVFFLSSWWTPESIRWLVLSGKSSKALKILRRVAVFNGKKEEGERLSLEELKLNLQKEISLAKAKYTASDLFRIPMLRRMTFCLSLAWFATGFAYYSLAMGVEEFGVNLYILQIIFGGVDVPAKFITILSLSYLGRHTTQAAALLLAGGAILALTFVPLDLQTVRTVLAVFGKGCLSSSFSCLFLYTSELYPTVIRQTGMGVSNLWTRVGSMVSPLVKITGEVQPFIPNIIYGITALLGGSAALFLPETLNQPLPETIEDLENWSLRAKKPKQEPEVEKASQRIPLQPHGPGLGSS

CYP2C19 = CYP2C19 (Homo sapiens, UniProt P33261); experiment: CYP2C19 [S]-mephenytoin 4'-hydroxylase inhibition in ultrapooled human liver microsomes; conditions: for IC50: CYP2C19 [S]-mephenytoin 4'-hydroxylase, ultrapooled human liver microsomes
UGT1A1 = UGT1A1 (Homo sapiens, UniProt P22309); experiment: UGT1A1 SN-38 glucuronidation inhibition in ultrapooled human liver microsomes
CYP1A2 = CYP1A2 (Homo sapiens, UniProt P05177); experiment: CYP1A2 phenacetin O-deethylase inhibition in ultrapooled human liver microsomes
OATP1B1 = molecular target: T3, OATP1B1 (Homo sapiens, UniProt Q9Y6L6); experiment: OATP1B1-mediated estrone-3-sulfate uptake in HEK293-OATP1B1 cells; assay type: in vitro ADME
T3 construct: host or cells: HEK293
T3 sequence (Q9Y6L6 whole entry): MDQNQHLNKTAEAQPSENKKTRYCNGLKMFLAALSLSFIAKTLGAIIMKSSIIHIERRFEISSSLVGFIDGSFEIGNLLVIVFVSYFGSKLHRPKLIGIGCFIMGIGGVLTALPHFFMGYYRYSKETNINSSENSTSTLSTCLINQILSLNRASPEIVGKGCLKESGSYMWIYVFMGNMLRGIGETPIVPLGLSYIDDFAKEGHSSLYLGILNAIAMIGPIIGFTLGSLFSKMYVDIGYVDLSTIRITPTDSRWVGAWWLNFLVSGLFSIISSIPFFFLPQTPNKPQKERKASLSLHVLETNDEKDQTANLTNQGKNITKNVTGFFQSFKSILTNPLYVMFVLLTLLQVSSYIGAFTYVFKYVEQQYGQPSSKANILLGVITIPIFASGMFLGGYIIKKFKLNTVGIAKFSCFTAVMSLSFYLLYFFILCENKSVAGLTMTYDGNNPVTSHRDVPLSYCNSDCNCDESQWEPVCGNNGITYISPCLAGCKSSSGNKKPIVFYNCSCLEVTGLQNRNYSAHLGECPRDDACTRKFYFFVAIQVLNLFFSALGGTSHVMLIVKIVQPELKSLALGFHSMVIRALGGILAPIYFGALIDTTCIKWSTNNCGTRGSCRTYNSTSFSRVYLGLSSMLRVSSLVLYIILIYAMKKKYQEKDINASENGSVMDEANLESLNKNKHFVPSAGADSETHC

CYP2C19, sequence (P33261 whole entry): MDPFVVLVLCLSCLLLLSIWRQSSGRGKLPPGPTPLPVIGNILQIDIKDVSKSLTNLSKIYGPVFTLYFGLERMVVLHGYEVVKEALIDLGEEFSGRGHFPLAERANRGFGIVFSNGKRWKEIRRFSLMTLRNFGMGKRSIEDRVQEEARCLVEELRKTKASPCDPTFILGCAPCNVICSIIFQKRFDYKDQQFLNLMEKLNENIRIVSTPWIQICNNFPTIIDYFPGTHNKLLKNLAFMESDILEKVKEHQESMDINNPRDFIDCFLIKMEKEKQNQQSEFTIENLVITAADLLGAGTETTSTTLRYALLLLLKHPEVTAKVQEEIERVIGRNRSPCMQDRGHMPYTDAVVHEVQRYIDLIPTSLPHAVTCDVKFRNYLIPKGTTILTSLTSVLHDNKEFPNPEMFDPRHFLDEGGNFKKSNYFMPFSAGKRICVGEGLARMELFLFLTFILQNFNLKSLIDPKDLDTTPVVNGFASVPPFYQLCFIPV
CYP1A2, sequence (P05177 whole entry): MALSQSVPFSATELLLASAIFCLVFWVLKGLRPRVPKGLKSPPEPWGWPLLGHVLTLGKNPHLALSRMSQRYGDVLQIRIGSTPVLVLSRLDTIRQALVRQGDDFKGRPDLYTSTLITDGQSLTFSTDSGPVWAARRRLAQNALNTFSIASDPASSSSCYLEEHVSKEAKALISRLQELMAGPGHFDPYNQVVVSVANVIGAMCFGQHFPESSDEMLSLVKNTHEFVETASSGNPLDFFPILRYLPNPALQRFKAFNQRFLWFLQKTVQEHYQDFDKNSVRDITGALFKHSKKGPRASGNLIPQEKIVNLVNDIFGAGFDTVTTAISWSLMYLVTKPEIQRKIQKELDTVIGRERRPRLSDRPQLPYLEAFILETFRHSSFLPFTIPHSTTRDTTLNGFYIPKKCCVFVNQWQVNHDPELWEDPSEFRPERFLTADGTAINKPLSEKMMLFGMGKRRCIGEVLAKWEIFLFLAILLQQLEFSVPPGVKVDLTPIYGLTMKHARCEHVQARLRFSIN
T1 sequence (Q4U2R8 whole entry): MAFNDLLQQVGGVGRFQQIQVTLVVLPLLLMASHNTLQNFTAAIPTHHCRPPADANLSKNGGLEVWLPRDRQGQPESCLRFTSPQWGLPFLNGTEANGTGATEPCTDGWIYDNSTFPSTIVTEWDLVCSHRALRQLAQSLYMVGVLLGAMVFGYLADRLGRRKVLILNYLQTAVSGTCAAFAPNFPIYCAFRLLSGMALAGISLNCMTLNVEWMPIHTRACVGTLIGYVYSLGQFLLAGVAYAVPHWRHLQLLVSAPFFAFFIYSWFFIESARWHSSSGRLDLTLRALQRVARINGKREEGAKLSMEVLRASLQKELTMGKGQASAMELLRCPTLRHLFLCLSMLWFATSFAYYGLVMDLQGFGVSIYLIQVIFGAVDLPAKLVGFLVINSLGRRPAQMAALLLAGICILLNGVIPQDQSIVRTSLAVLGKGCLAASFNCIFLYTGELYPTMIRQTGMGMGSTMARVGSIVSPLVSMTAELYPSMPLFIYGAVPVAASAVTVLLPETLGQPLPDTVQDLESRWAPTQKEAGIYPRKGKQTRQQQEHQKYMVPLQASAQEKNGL
UGT1A1, sequence (P22309 26-533): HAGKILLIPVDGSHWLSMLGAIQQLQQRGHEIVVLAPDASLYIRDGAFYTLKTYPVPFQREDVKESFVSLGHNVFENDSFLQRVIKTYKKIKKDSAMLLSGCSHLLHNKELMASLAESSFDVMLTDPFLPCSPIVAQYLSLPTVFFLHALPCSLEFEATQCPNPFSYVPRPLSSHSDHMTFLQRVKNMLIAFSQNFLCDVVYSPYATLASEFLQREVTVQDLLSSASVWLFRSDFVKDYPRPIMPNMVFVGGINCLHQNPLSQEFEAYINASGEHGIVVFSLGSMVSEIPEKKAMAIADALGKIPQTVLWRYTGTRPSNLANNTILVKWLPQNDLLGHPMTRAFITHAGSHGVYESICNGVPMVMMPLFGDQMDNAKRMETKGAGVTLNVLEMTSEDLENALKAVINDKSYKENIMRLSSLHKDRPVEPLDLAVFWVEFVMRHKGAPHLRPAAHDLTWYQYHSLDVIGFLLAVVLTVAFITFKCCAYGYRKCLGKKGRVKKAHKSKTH
UGT1A6, sequence (P19224 27-532): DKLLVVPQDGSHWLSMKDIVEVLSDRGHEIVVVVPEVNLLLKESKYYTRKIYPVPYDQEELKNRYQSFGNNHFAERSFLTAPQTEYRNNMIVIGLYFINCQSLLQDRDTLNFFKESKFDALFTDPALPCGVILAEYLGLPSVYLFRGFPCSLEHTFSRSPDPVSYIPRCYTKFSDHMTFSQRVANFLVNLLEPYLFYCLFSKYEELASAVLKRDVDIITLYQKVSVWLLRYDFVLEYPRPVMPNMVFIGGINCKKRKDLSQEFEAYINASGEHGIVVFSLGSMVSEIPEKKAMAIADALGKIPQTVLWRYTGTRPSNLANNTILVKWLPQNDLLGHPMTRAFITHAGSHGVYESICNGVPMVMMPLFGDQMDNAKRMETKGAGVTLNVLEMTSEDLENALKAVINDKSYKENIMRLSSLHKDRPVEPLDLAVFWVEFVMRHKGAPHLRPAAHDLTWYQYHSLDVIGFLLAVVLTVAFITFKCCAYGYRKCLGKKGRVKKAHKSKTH

SMILES: CCCCCn1nc(C(=O)N[C@H](C(N)=O)C(C)C)c2ccccc21 [AB-PINACA, N-[(2S)-1-amino-3-methyl-1-oxobutan-2-yl]-1-pentyl-1H-indazole-3-carboxamide]
- IC50 (UGT1A6): 94 µM
- IC50 (OAT1): > 250 µM
- IC50 (OAT3): 11.8 µM
- Ki (OAT3): 8.3 µM
- Mode of Inhibition, OAT3 (OAT3; estrone-3-sulfate uptake, HEK293-OAT3 cells): competitively inhibited; also recorded: competitive inhibition
- IC50 (CYP2C19; IC50 With NADPH Preincubation, 30-min preincubation with NADPH): 23 µM
- IC50 (CYP2C19; IC50 Without NADPH Preincubation, without NADPH preincubation): 20 µM
- Ki (CYP2C19; Ki, CYP2C19, [S]-mephenytoin 4'-hydroxylation, human liver microsomes, Lineweaver–Burk and Dixon plots): 6.7 µM
- IC50 shift at 15 min (CYP2C19; human, liver microsomes, pH 7.4, probe [S]-mephenytoin): 0.9
- IC50 (UGT1A1): > 100 µM
- IC50 (CYP1A2): > 100 µM
- IC50 (CYP1A2; read-out: IC50 With NADPH Preincubation, CYP1A2 phenacetin O-deethylase, ultrapooled human liver microsomes, 30-min preincubation with NADPH): > 100 µM
- IC50 (OATP1B1): > 250 µM
